Experimental data published in patent publication US9226914B2, “Methods for promoting neuronal development and/or health” (Mead Johnson Nutrition Company, priority 2013, dated 2016).

Key:
[1] = tested on: frontal cortex neuronal networks (cortical network activity in vitro); experiment: Acute effects on cortical neuronal network activity on MEA neurochips (spike train analysis); format: cell-based, mice
Experimental: The experiments were performed according to the SOPs, “SOP Preparation Frontal Cortex Mouse—Serum (Rev. 07 2012 Mar. 6 eng)”, “SOP Solutions for Neuronal Cell Culture (Rev. 04 2009 Nov. 18 eng)”, “SOP Cleaning and Substrate Preparations of MEAs (Rev. 03 2009 Apr. 26 eng)”, “SOP Feeding neuronal cell culture”, “SOP Cell culture preparation MEAs”, “SOP Plexon Recording” and “SOP Plexon Data Analysis”.
The microelectrode array neurochips (“MEA neurochips”) were provided by the Center for Network Neuroscience (CNNS) at the University of North Texas. These 5×5 cm^2 glass chips have a dual recording matrix with 32 passive electrodes per matrix and indium tin oxide conductors. The hydrophobic insulation material surface was activated by a brief butane flame pulse through a stainless steel mask. Thus, cell attachment on a confined region, a 5 mm diameter centered on the electrode array, is ensured. The activated face regions were coated with 25 μg/mL poly-D-lysine (30-70 kD) and incubated […] in 16 μg/mL laminin for 3 hours right before the preparation.
Frontal cortex tissue was harvested from embryonic day 15 chr:NMRI mice. Mice were sacrificed by cervical dislocation according to the German Animal Protection Act Section 4. Cultures on MEAs were incubated at 37 deg. C. in a 10% CO2 atmosphere until ready for use, which usually is four weeks to three months after seeding. Culture media were replenished two times a week with DMEM containing 10% heat inactivated horse serum. The developing co-cultures were treated with the mitosis inhibitor 5-fluoro-2′-deoxyuridine (25 μMolar) and uridine (63 μMolar) for 48 hours on day 5 after seeding to prevent further glial proliferation.
After establishing a stable activity pattern after 4 weeks, the neuronal networks on MEA chips were employed for substance testing. For this example, cultures between 25 and 38 days in vitro were used. For extracellular recording, MEA neurochips were placed into sterilized constant-bath recording chambers and maintained at 37 deg. C. Recordings were made in DMEM including 10% heat inactivated horse serum. The pH was maintained at 7.4 with a continuous stream of filtered, humidified airflow with 10% CO2. Sets of preamplifiers were positioned to either side of the recording chamber. Recording was performed with the multichannel acquisition processor system, a computer-controlled 64-channel amplifier system (Plexon, Inc., Dallas, Tex., USA) providing programmable amplification, filtering, switching, and digital signal processing of microelectrode signals. The total system gain used was 10K with a simultaneous 40 kHz sampling rate. The signals routinely recorded by these neurochips are located in a range of 15-1800 microV.
The multichannel signal acquisition system delivered single neuron spike data. Spike identification and separation were accomplished with a template-matching algorithm in real time. This allows for the extracellular recording from action potentials from a maximum of 256 neurons simultaneously.
The action potentials, or spikes, were recorded in spike trains and are clustered in so-called bursts. Bursts were quantitatively described via direct spike train analysis using the program NeuroEXplorer (Plexon Inc., Dallas, Tex., USA) and in house programs. Bursts were defined by the beginning and the end of short spike invents. Maximum spike intervals defining the start of a burst were 40 ms and maximum intervals to end a burst from 200 ms.
(§1) All compounds were recorded with a fixed DMSO concentration of 0.1% throughout the experiments. Due to the fact that alpha-lipoic acid was investigated at concentrations between 100 μM and 5 mM, the solvent concentration reached 0.7%.
The high content analysis of the network activity patterns provides a multiparametric description characterized in four activity categories: general activity, burst structure, synchronicity and oscillatory behavior. […]

[2] = Precipitation on dilution of stock into experiment bath solution; format: physicochemical; conditions: 1 M stock in 100% DMSO; bath 1, 3 and 5 mM
Experimental: as §1, with “0.7%. […] Working solutions of all compounds were freshly prepared for each experiment day and between 0.9 and 10 μL were applied to a 1 mL experiment bath solution.” for “0.7%.”

[3] = tested on: neuronal activity (spike rate and burst rate); experiment: Chronic effects of hBDNF on neuronal activity development in the MEA system; format: cell-based; conditions: 20 ng/ml, FIG. 15
Excerpt: For neurotrophic factors such as hBDNF, NeuroProof tested the chronic effects in the MEA system (See FIG. 15).

Compound: O=C(O)CCCCC1CCSS1 (stereo not drawn) [ALA, alpha-lipoic acid]
- activity reached (spike rate fit) ([1]; 100 μM alpha-lipoic acid, FIG. 6): 91.5 % of control (0.1% DMSO) activity
- activity reached (spike rate fit) ([1]; 1 mM alpha-lipoic acid, FIG. 6): 83.6 % of control (0.1% DMSO) activity
- activity reached (spike rate fit) ([1]; 5 mM alpha-lipoic acid, FIG. 6): 43.9 % of control (0.1% DMSO) activity
- concentration at which general activity is affected (spike rate fit) ([1]; FIG. 6): above 100 μM
- EC50 ([1]; Mus musculus, concentration of ALA, FIGS. 9 and 10, read-out: EC50 for the decline of activity): 5.03 mM
- Hill coefficient (nH) of the decline of activity ([1]; concentrations above 100 μM ALA, higher value = steeper slope): 1.66
- concentration at which general activity is reduced ([1]; experimental concentrations): ≥ 1 mM
- precipitation during dilution [2]: precipitation of alpha-lipoic acid occurred at the three highest concentrations

Compound: CC/C=C\C/C=C\C/C=C\C/C=C\C/C=C\C/C=C\CCC(=O)O [DHA, docosahexaenoic acid]
- activity (spike rate fit), activity decline reached ([1]; 100 μM DHA, highest tested concentration, FIG. 5): 63.6 % of native activity
- concentration at which spike rates and burst rates are reduced ([1]; increasing effects at higher concentrations): ≥ 100 pM

Compound: hBDNF: Human recombinant brain derived neurotrophic factor, PeproTech #450-02
- effect on general activity ([1]; above 500 pg/mL, tested 10 pg/mL to 50 μg/mL): only shows slight effects on the general activity which is numerically increased
- EC50 on spike rate ([1]; acute application): 5.28 ng/mL
- acceleration of neuronal activity development ([3]; chronic): approximately one week
- general activity (spike rate, burst rate), chronic treatment ([3]; versus vehicle): increases the general activity at every recorded time point
